In test [1] the test system is INS1. In words: Anti-apoptotic activity in rat INS1 cells assessed as reduction in cytokine-induced cell apoptosis at 100 nM treated for 1 hr prior to TNF-alpha and IL-1beta challenge. Format: functional.
The target in test [2] is T1, Glucagon-like peptide 1 receptor (Mus musculus, UniProt O35659).
T1 sequence (O35659 whole entry): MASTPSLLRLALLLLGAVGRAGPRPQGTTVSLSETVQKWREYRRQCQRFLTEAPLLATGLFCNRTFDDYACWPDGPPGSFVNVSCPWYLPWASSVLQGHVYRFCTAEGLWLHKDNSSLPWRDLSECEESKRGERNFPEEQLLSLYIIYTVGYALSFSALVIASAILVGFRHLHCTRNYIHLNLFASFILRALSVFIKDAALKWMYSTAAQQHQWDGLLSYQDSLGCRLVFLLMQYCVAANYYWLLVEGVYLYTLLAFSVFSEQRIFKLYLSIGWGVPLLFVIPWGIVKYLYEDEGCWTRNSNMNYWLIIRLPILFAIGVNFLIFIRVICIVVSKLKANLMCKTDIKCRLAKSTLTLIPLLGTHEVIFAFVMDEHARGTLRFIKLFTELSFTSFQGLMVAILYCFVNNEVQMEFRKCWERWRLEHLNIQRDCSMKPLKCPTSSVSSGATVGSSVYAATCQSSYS
Kind of test: Agonist activity at mouse GLP-1R expressed in CHO cells assessed as increase in cAMP accumulation. The format is cell-based. On the technique in general: Cyclic AMP is a second messenger, typically raised through Gs and lowered through Gi signalling.

Test [3] deals with Glucagon receptor (Mus musculus, UniProt Q61606). In words: Agonist activity at mouse GCGR expressed in CHO cells assessed as increase in cAMP accumulation. The format is cell-based.

The structures appear in SMILES notation. pEC50: −log10 of the molar value. Numbered stars: 1 amine (or outer) side, 2 acyl side, 3 side chain; on linkers, the order of the positions; unused ones are H or OH. Square brackets hold non-standard residues; d marks the D form. Peptide text beside a SMILES is read from it. X1 = CC(C)(CN([C@@H](CCC(N)=O)C(=O)[*:2])[*:1])NC(=O)[C@@H](N)Cc1c[nH]cn1

The term inhibition denotes the percentage by which the read-out fell short of the control. By pEC50 is commonly meant the negative decadic logarithm of the EC50, by convention in mol/L.

Chain of Glucagon receptor (Q61606 whole entry): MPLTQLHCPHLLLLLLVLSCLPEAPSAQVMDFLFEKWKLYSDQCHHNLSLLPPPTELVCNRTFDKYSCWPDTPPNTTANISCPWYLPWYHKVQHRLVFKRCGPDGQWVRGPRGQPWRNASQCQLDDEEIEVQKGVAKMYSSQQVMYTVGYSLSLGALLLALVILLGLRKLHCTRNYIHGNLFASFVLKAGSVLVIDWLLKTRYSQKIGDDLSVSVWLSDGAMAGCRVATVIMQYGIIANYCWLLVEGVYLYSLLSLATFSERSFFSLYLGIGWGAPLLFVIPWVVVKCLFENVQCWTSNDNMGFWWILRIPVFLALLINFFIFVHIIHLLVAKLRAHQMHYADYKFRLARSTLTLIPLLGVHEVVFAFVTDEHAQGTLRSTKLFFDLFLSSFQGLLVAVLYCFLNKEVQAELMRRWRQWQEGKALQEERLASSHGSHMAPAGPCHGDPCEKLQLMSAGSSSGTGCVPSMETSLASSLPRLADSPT

As to `CC[C@H](C)[C@H](NC(=O)[C@H](Cc1ccccc1)NC(=O)[C@H](CCC(=O)O)NC(=O)[C@H](CCCCN)NC(=O)[C@H](C)NC(=O)[C@H](C)NC(=O)[C@H](CCC(N)=O)NC(=O)CNC(=O)[C@H](CCC(=O)O)NC(=O)[C@H](CC(C)C)NC(=O)[C@H](Cc1ccc(O)cc1)NC(=O)[C@H](CO)NC(=O)[C@H](CO)NC(=O)[C@@H](NC(=O)[C@H](CC(=O)O)NC(=O)[C@H](CO)NC(=O)[C@@H](NC(=O)[C@H](Cc1ccccc1)NC(=O)[C@@H](NC(=O)CNC(=O)[C@H](CCC(=O)O)NC(=O)[C@H](C)NC(=O)[C@@H](N)Cc1cnc[nH]1)[C@@H](C)O)[C@@H](C)O)C(C)C)C(=O)N[C@@H](C)C(=O)N[C@@H](Cc1c[nH]c2ccccc12)C(=O)N[C@@H](CC(C)C)C(=O)N[C@H](C(=O)N[C@@H](CCCCN)C(=O)NCC(=O)N[C@@H](CCCNC(=N)N)C(=O)O)C(C)C`, in test [1], the inhibition at 0.1 µM amounted to 40.4%.
`CSCC[C@H](NC(=O)[C@H](CC(C)C)NC(=O)[C@H](Cc1c[nH]c2ccccc12)NC(=O)[C@H](CS)NC(=O)[C@@H](NC(=O)[C@H](Cc1ccccc1)NC(=O)[C@H](CCC(=O)O)NC(=O)[C@H](CCCCN)NC(=O)[C@H](C)NC(=O)[C@H](CCCNC(=N)N)NC(=O)[C@H](CCCCN)NC(=O)[C@H](CCC(=O)O)NC(=O)[C@H](CC(=O)O)NC(=O)[C@H](CC(C)C)NC(=O)[C@H](Cc1ccc(O)cc1)NC(=O)[C@H](CCCCN)NC(=O)[C@H](CO)NC(=O)[C@H](Cc1ccc(O)cc1)NC(=O)[C@H](CC(=O)O)NC(=O)[C@H](CO)NC(=O)[C@@H](NC(=O)[C@H](Cc1ccccc1)NC(=O)[C@@H](NC(=O)CNC(=O)[C@H](CCC(N)=O)NCC(C)(C)NC(=O)[C@@H](N)Cc1c[nH]cn1)[C@@H](C)O)[C@@H](C)O)C(C)C)C(=O)N[C@@H](CC(N)=O)C(=O)N[C@H](C(=O)NCC(=O)N1CCC[C@H]1C(=O)N[C@@H](CO)C(=O)N[C@@H](CO)C(=O)NCC(=O)N[C@@H](C)C(=O)N1CCC[C@H]1C(=O)N[C@@H](CO)C(N)=O)[C@@H](C)O` (H-[X1]GTFTSDYSKYLDEKRAKEFVCWLMNTGPSSGAPS-NH2): the figures for the pEC50 in test [2] and in test [3] were 9.35 and 9.17, respectively.

Values taken from ChEMBL document CHEMBL5244248, “A novel long-acting oxyntomodulin analogue eliminates diabetes and obesity in mice” (Eur J Med Chem, 2020).
